Reference: patent US10155004B2, “17-hydroxy-17-pentafluoroethyl-estra-4,9(10)-dien-11-aryl derivatives, method of production thereof and use thereof for the treatment of diseases” (BAYER INTELLECTUAL PROPERTY GMBH, priority 2009, dated 2018)

Columns and labels:
[1] = target: T1, human progesterone receptor B (Homo sapiens, UniProt P06401); assay: Progesterone receptor-antagonistic action in stably transfected SK-N-MC cells, MTV-LUC reporter (PR-B); assay type: cell-based; details: antagonistic efficacy vs 0.1 nmol/l promegestone
T1 construct: expressed in transfected cells; host or cells: SK-N-MC human neuroblastoma cells, stably transfected
T1 sequence (P06401 1-933): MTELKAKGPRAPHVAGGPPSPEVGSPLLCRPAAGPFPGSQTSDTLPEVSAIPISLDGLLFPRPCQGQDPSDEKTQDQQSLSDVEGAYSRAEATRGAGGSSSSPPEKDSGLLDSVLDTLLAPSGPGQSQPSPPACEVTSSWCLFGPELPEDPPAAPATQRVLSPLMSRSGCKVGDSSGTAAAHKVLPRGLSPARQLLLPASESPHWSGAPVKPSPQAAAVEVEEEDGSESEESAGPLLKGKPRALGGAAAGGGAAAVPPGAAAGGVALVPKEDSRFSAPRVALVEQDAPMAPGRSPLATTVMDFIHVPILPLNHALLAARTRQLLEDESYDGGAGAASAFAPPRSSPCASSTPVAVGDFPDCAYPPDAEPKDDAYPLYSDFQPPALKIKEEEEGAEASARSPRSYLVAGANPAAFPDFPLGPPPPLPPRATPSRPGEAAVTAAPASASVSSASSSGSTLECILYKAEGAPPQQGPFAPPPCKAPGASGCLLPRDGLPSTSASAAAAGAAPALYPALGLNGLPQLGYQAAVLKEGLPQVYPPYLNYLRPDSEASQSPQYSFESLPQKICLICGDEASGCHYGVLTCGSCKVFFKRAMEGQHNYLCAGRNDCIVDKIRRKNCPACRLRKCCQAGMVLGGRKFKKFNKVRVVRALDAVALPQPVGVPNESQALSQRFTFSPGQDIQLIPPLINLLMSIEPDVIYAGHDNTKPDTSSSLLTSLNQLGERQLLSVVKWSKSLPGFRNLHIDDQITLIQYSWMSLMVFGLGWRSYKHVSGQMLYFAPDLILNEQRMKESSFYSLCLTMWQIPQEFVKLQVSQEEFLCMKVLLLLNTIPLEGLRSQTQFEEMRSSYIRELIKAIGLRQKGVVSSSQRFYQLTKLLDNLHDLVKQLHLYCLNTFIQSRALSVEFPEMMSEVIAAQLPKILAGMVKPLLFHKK
Experimental: EXAMPLE 16 PROGESTERONE RECEPTOR-ANTAGONISTIC ACTION IN STABLE TRANSFECTANTS OF HUMAN NEUROBLASTOMA CELLS (SK-N-MC CELLS) WITH THE HUMAN PROGESTERONE A OR PROGESTERONE B RECEPTOR AND AN MTV-LUC REPORTER CONSTRUCT
SK-N-MC cells (human neuroblastoma cells), which have been stably transfected with plasmids, which express the human progesterone receptor B (pRChPR-B-neo) or the human progesterone receptor A (pRChPR-A-neo) and a reporter construct (pMMTV-LUC), were incubated for 24 hours either in the absence (negative control) or in the presence of increasing amounts of the respective test compound (0.01 nmol/l, 0.1 nmol/l 1 nmol/l, 10 nmol/l, 100 nmol/l and 1 μmol/l), in order to determine the agonistic efficacy. As positive control of reporter gene induction, the cells were treated with the synthetic gestagen promegestone (0.01 nmol/l, 0.1 nmol/l, 1 nmol/l, 10 nmol/l, 100 nmol/l and 1 μmol/l). For determination of the antagonistic activity, the cells were treated with 0.1 nmol/1 promegestone and additionally with increasing amounts of the respective test compound (0.01 nmol/l, 0.1 nmol/l, 1 nmol/l, 10 nmol/l, 100 nmol/l and 1 μmol/l). The activity of the LUC reporter gene (LUC=luciferase) was determined in the cell lysates and was measured as RLU (relative light units). All measured values are given as percentage efficacy and as EC50 or IC50 concentrations.
11β-(4-Acetylphenyl)-20,20,21,21,21-pentafluoro-17-hydroxy-19-nor-17α-pregna-4,9-dien-3-one and 20,20,21,21,21-pentafluoro-17-hydroxy-11β-[4-(hydroxyacetyl)phenyl]-19-nor-17α-pregna-4,9-dien-3-one, very potent and therefore preferred examples from WO98/34947 and WO2008/058767, were tested as comparative compounds along with the test compound.

pregnant rats = assay: Abortion test on female rats (termination of early pregnancy); assay type: in vivo, rat; details: d5-d7 p.c., autopsy d9 p.c.
Experimental: EXAMPLE 17 ABORTION TEST ON FEMALE RATS
The action of progesterone and of the progesterone receptor is a fundamental precondition for successful pregnancy or gestation in mammals. The progesterone-antagonistic action of the compounds according to the invention was tested on pregnant rats (6 rats per group) on day 5 to 7 post coitum with conventional housing and feeding conditions.
After successful hand mating, the pregnant animals (presence of sperm in the vaginal smear on day 1 of pregnancy=d1 p.c.) were randomized and divided into the treatment group and the control group. The animals then each received subcutaneously or orally 0.15; 0.5; 1.5 or 5 mg/kg of the test compound or 1.0 ml/kg of vehicle (benzyl benzoate/castor oil: 1+4 [v/v]) daily from day 5 to day 7 (d5-d7 p.c.).
Autopsy was carried out on day 9 (d9 p.c.). As a characteristic of progesterone receptor antagonistic action, the uterus was examined for the presence of nidation sites. Complete absence, or also the presence of pathological, haemorrhagic or otherwise abnormal nidation sites on day 9 (d9 p.c.) was assessed as abortion.

rodents and non-rodents = details: in vivo

SMILES: C[C@]12C[C@H](c3ccc(S(C)(=O)=O)cc3)C3=C4CCC(=O)C=C4CC[C@H]3[C@@H]1CC[C@@]2(O)C(F)(F)C(F)(F)F [Example 4, (11β,17β)-17-Hydroxy-11-[4-(methylsulphonyl)phenyl]-17-(pentafluoroethyl)estra-4,9-dien-3-one]
- Progesterone receptor B (PR-B) Efficacy [1]: 100%
- Abortion rate (pregnant rats; daily dose 0.15 mg/kg s.c. or p.o.): 40%
- Abortion rate (pregnant rats; daily dose 0.5 mg/kg s.c. or p.o.): 100%
- Abortion rate (pregnant rats; daily dose 1.5 mg/kg s.c. or p.o.): 100%
- Abortion rate (pregnant rats; daily dose 5.0 mg/kg s.c. or p.o.): 100%
- safety profile (rodents and non-rodents): especially favourable safety profile
